Literature values as cited in patent US20220016082A1, “COMBINATION THERAPIES FOR HIGH AND VERY HIGH RISK MDS” (MEI Pharma, Inc., priority 2018, published 2022).

Legend:
[1] = system: Higher-Risk Myelodysplastic Syndromes and Chronic Myelomonocytic Leukemia; details: arms N = 92 / 93 / 92; total N = 277
MDS = details: N = 179

Q: What does the source list for `Nc1ncn([C@@H]2O[C@H](CO)[C@@H](O)[C@H]2O)c(=O)n1` [AZA Monotherapy, 5-azacytidine]?
A: CR (of CR/PR/HI) [1]: 24%; HI (of CR/PR/HI) [1]: 14%; Marrow CR [1]: 12%; ORR = CR + PR + mCR [1]: 38%; PR (of CR/PR/HI) [1]: 0%; CR (of CR + PR) (MDS): 17%; CR + PR (MDS): 29%; HI (MDS): 49%; PR (of CR + PR) (MDS): 12%
